From ChEMBL document CHEMBL1157539, “Thousands of chemical starting points for antimalarial lead identification” (Nature, 2010)

Test system: Plasmodium falciparum
Test: GSK_TCMDC: Inhibition of Plasmodium falciparum 3D7 in whole erythrocytes, using parasite LDH activity as an index of growth.
Type: functional, organism-based
Settings: Plasmodium falciparum, 3D7

Compound	XC50 [nM]
COC(=O)Nc1nc2cc3c(cc2s1)OCCO3	841
CC1(CCCCN2CCC(Cc3ccccc3)CC2)C(=O)Nc2ccccc21 (stereo not given)	855
COc1ccccc1CCN1CCC(CN(C)Cc2ccc(O)c(Cl)c2)CC1	335
CC(=O)N(C)/N=C/[C@H](CCc1ccccc1)NC(=O)[C@H](CC(C)C)NC(=O)c1cccc(OCCN2CCOCC2)c1	332
CN1CCc2cc(O)c(NS(=O)(=O)c3ccc(-c4ccc(Cl)cc4)cc3)cc2CC1	767
CCc1cn2c3c(cc(C(=O)N[C@@H](Cc4ccccc4)[C@H](O)CNC4CCOCC4)cc13)N(C(C)C)S(=O)(=O)CC2	83.6
CC(C)(C)OC(=O)NCc1ccc(Nc2nnc(-c3ccc(OCC(=O)NCc4cc(C(F)(F)F)cc(C(F)(F)F)c4)c([N+](=O)[O-])c3)o2)cc1	460
CC[C@H](C)CNC(=O)c1cncc(-c2ccc(CNCCOc3ccccc3)cc2)c1	1110
Cc1ccc2nc(C)n(C3CCN(C(=O)Cc4ccccc4C)CC3)c2c1	243
CCOC(=O)c1ccc(NC(=O)Nc2ccc(-c3cccc(-c4nc5cc(F)ccc5[nH]4)c3)cc2)cc1	122
c1ccc(-c2[nH]c3ccccc3c2CN2CCC(N3CCCCC3)CC2)nc1	1210
CC(C)C(=O)NC(c1cccs1)c1cc(Cl)c2cccnc2c1O (stereo not given)	575
O=C(NCCNc1nc(NCCNC(=O)Nc2ccccc2)c2ccc(=O)n(-c3c(F)cccc3F)c2n1)Nc1ccccc1	170
O=C(NCc1cccc(F)c1)Nc1ccc(-c2cccc(-c3nc4ccccc4[nH]3)c2)cc1	894
O=C(NCc1ccccc1)NC(CCCN1CCC(Oc2cccc(Cl)c2)CC1)c1ccc(Cl)c(Cl)c1 (stereo not given)	862
CC(C)Oc1cc2c(cc1NS(=O)(=O)c1ccc(-c3cccs3)cc1)CCN(C)CC2	961
CNCCNCc1ccc(-c2ccc(-c3nc4cccc(C)c4[nH]3)s2)cc1	732
CCN(CC)CCN(CCCc1ccc(-c2ccc(C(F)(F)F)cc2)cc1)C(=O)Cn1c(CCc2cccc(F)c2F)nc(=O)c2c1CCC2	828
Cc1cc(C)n(Cc2ccc(C(=O)NCC3CCCCC3)cc2)n1	957
COc1cc2nc(C)nc(Nc3ccc(Oc4ccccc4)cc3)c2cc1OC	720
O=C(c1cc(C(=O)NCc2ccc(Cl)cc2)c(=O)n(Cc2ccc(Cl)cc2)c1)c1cc(Cl)ccc1O	1400
CCOC(=O)c1ccc(NC(=O)Nc2ccc(-c3cccc(-c4nc5ccccc5[nH]4)c3)cc2)cc1	145
O=C(/C=C/c1c(Cl)cccc1Cl)NC1CCC(CN2C3CCC2CC(c2c[nH]c4ccccc24)C3)CC1 (stereo not given)	844
NOCCCCOc1ccc(Br)cc1	189

Compound	XC50 [nM]
CNCC(C)(C)c1nc(-c2ccc(Cl)c(O)c2)c(-c2ccncc2)[nH]1	736
O=C(Cc1cc(=O)oc2cc(O)ccc12)N1CCC(CN2CCC(c3c[nH]c4ccccc34)CC2)CC1	870
C(=Cc1nc2ccccc2s1)c1ccc2c(c1)OCCO2	393
Nc1nc(N)c2c(ccc3c2ccn3Cc2ccc(F)cc2)n1	6.53
CCCCOP(=O)(OCCCC)C(=Cc1ccc(O)c2ccccc12)P(=O)(OCCCC)OCCCC	1070
CN(c1ccccc1C(=O)Nc1cc(Cl)ccc1Oc1ccccc1)S(=O)(=O)c1ccccc1	742
COc1ccc(CCN(C)CCCCNC(=O)c2ccc(NC(=O)c3ccc(Cl)cc3)cc2)c(OC)c1	921
O=S(=O)(Nc1ccc(CCN2CCC(N3CCCCC3)CC2)cc1)c1ccc(Cl)cc1	1090
O=C(CSc1cccc[n+]1[O-])c1ccc(Cc2ncc(C(F)(F)F)cc2Cl)s1	715
O=C(Nc1ccc([N+](=O)[O-])cc1)Nc1cc(OCC(F)(F)F)cc(OCC(F)(F)F)c1	469
O=C(Nc1ccc(-c2cccc(CN3CCC(O)CC3)c2)cc1)c1cccc(Cl)c1	826
CC(Sc1nc2sccc2c(=O)n1C)C(=O)Nc1ccc2c(c1)OCO2 (stereo not given)	1040
CN(C)c1ccc(-c2csc(C(=O)NCC3CCN(Cc4cccc(C(F)(F)F)c4)C3)c2)cc1 (stereo not given)	843
CCCCCOc1ccc(C=NNc2nc(O)cc(-c3ccccc3)n2)cc1	887
CCn1c(-c2nonc2N)nc2c(Cl)ncc(O[C@H](CCN)c3ccccc3F)c21	1460
CC1(C)NC(N)=NC(=N)N1OCCSc1ccc(Cl)c(Cl)c1	3.2
Cc1ccc(-c2cncc(-c3cc(NC4CCN(Cc5ccccc5)CC4)nc(-c4ccccc4)n3)c2)cc1	720
CN(C)CCN(C)Cc1ccc(-c2ccc(NS(=O)(=O)c3cccc4cccnc34)cc2)cc1	864
c1ccc(CN2CCC(NCc3ccc(-c4ccc(CNC5CCCC5)cc4)cc3)CC2)cc1	294
COc1cc(OC)cc(-c2nn(-c3ccc([N+](=O)[O-])cc3Cl)c(=S)n2Cc2ccco2)c1	838
CC[C@H]1CN2CC[C@H]1C[C@H]2[C@H](O)c1ccnc2ccc(O)cc12	643
CCNc1cc(C(=O)N[C@@H](Cc2ccccc2)[C@H](O)CNC2CCCC2)cc(N2CCCC2=O)c1	83.4
CN(C)c1c(CNCCCCCCNCc2ccc3ccccc3c2N(C)C)ccc2ccccc12	463
CCCCN(CCCC)/C(=N/C(=N)Nc1ccc(Cl)cc1)NCCCCCCN/C(=N\C(=N)Nc1ccc(Cl)cc1)N(CCCC)CCCC	791

Compound	XC50 [nM]
Clc1ccc(C2CCN(CCCOc3ccc4c(c3)CCNCC4)CC2)cc1	754
O=C(Nc1ccc(Cn2ncc(N3CCCNCC3)c(Cl)c2=O)cc1)Nc1cc(F)cc(C(F)(F)F)c1	767
CCCC(=O)NC(NC(=S)Nc1ccc([N+](=O)[O-])cc1)C(Cl)(Cl)Cl (stereo not given)	1030
FC(F)(F)c1ccc2[nH]c(-c3ccc(-c4ccc(CNCc5cnn(-c6ccccc6)n5)cc4)s3)nc2c1	456
CC1(C)N=C(N)N=C(N)N1OCc1cccc(C#N)c1	7.93
COc1cc(NC(=O)/C=C/c2ccccc2OC(F)(F)F)cc(OCCN2CCN(CCN3CCOCC3)CC2)c1	157
Cc1ccc(-c2ccn(Cc3cccc(OCc4ccccc4)c3)n2)cn1.Cc1ccc(-c2ccnn2Cc2cccc(OCc3ccccc3)c2)cn1	1180
Cc1ccc(O)c(-c2cc(C(=O)Nc3ccc(S(=O)(=O)N4CCCC(C)C4)cc3)[nH]n2)c1 (stereo not given)	707
CCOc1cc[nH]c(=O)n1	458
CN1CCN(CCCN(Cc2ccc(-c3ccc(CNCCc4ccccc4)cc3)cc2)C(=O)c2cccs2)CC1	1430
Cc1onc(-c2ccccc2)c1-c1nc(NC2CCCC(C)C2)no1 (stereo not given)	836
COc1cc(F)c2ncc(Cl)c(C(O)CN3CCC(NC(=O)c4ccc5c(c4)NC(=O)CS5)CC3)c2c1 (stereo not given)	680
O=C(Nc1ccc(Cl)c(Cl)c1)N[C@H]1CCN(CCCCCNC(=O)C2CC2c2ccc(Cl)c(Cl)c2)C1 (stereo not given in full)	1030
Cc1[nH]c2ccccc2c1C(=O)CSc1nn(-c2ccccc2)c(=S)s1	699
COc1cc(OC)c(NC(=O)C2c3ccccc3C(=O)N(CC(C)C)C2c2cccs2)cc1Cl (stereo not given)	46.4
COc1cc(CNC[C@@H](O)[C@H](Cc2ccccc2)NC(=O)c2cc(C3CCCC3)cc(N3CCCS3(=O)=O)c2)cc(OC)c1	1240
COc1ccccc1-c1cccc(CNC2CCN(CC3Cn4c(=O)ccc5ccc(F)c3c54)CC2)c1 (stereo not given)	1380
CCc1cccc(-n2c(=O)c3cccnc3n2CC(=O)NC2CCCC2)c1	932
CCCCCCC(C)c1cc(O)c2c(c1)OC(C)(C)C=C2c1ccncc1 (stereo not given)	733
Cc1cc(F)ccc1Oc1nc(Nc2ccc(N3CCOCC3)c(F)c2)nc2c1S(=O)(=O)CCC2	462
O=C(Nc1ccccc1)N(Cc1ccc(-c2cccc(CNC3CCCC3)c2)cc1)C1CCN(Cc2ccccc2)CC1	427
CCC(CC)CN1C(=O)C(c2ccccc2)(c2ccccc2)N=C1N	970
Cc1cccc2nc(-c3cccc(-c4cccc(NC(=O)CC5NC(=O)c6ccccc65)c4)c3)[nH]c12 (stereo not given)	1030
COc1ccc(-c2cccc(NC(=O)c3ccc(C#N)cc3)c2)cc1CN(C)CCN(C)C	74.7

Compound	XC50 [nM]
CS(=O)(=O)Nc1ccc2[nH]cc(C3CCN(CC4CCC(NC(=O)/C=C/c5ccc(Cl)c(Cl)c5)CC4)CC3)c2c1 (stereo not given)	847
COc1ccc(Nc2nc(NCc3cccnc3)cc(-c3ccc(OC)cc3)n2)cc1	1400
Cc1ccccc1C1CCN(C2CCC(NC(=O)/C=C/c3ccc(F)cc3)CC2)CC1 (stereo not given)	1340
Cc1ccc(/C=C/C(=O)NCCCCCN2CCC(c3c[nH]c4ccccc34)CC2)cc1	1010
O=C(Nc1ccc2c(c1)CCCN2S(=O)(=O)c1cccs1)c1cc([N+](=O)[O-])ccc1Cl	845
COc1ccc(-c2ccc(CNCc3ccccc3)cc2)cc1S(=O)(=O)NCCN1CCCC1	726
Cc1ccc(Nc2nccc(NCC(O)c3cccc(C)c3)n2)cc1 (stereo not given)	1020
CCCc1ccccc1Nc1nc(C)cc(N(CC)CCCN2CCCCC2)n1	622
Cc1nnsc1C(=O)Nc1cccc(-c2cccc(-c3nc4cc(C(F)(F)F)ccc4[nH]3)c2)c1	235
CCOc1cc(C)ccc1C1CCN(CCCCNC(=O)c2cccc(-c3ccc(C(F)(F)F)cc3)c2)CC1	937
Cc1cc(=O)c(-c2ccc(OCc3ccc(OC(F)(F)F)cc3)cc2)c(C)[nH]1	736
NS(=O)(=O)c1cccc(N/C=C2\C(=O)Nc3ccc(S(=O)(=O)Cc4c(Cl)cccc4Cl)cc32)c1	720
Cc1cccc2nc(-c3cccc(-c4ccc(NC(=O)NC5CC5c5ccccc5)cc4)c3)[nH]c12 (stereo not given)	719
Cc1c(Cn2nc(Cl)c(N3CCNCC3)cc2=O)cccc1NC(=O)Nc1ccc(-c2ccccc2)cc1	1380
Cc1ccc2c(=O)cc(CCc3cccc(F)c3F)n(CC(=O)N(Cc3ccc(-c4ccc(C(F)(F)F)cc4)cc3)C3CCN(C)CC3)c2n1	1260
O=[N+]([O-])c1ccc2nc(Nc3ccc(Cl)c(Cl)c3)c(Nc3ccc(Cl)c(Cl)c3)nc2c1	793
Cc1ccccc1CCNC(=O)c1ccc(N2CCN(c3ccncc3)CC2)nc1	1390
CC1(C)N=C(N)N=C(N)N1c1ccc(Cl)c(Cl)c1	3.2
Cc1c(C)n(C2CCCC2)c2ncnc(OC3CCN(CC(=O)NCC4CC4)CC3)c12	891
CN(CCC(O)c1ccc(Cl)c(Cl)c1)CC1CC1C(=O)c1ccccc1 (stereo not given)	794
COc1cc(NC(=O)c2cccc([N+](=O)[O-])c2)cc(S(=O)(=O)c2ccc(Cl)cc2)c1	1130
Cc1cc(=NN=Cc2ccccc2F)c2cc(C(F)(F)F)ccc2[nH]1	433
Clc1cc(Cl)cc(Nc2ccnc(Nc3cc(Cl)cc(Cl)c3)n2)c1	672
